Assay results published in ChEMBL document CHEMBL1128039, “Acyl CoA:cholesterol acyltransferase (ACAT) inhibitors: ureas bearing two heterocyclic head groups” (Bioorg Med Chem Lett, 1995).

Tested on: Cricetinae gen. sp.
Assay: In vivo activity, with an ED50 inlowering cholesterol levels in the cholesterol-fed hamster
Assay type: functional, Cricetulus griseus

CCCCCCCN(CCCCCSc1nc(-c2ccccc2)c(-c2ccccc2)[nH]1)C(=O)Nc1ccc(F)cc1F [LECIMIBIDE]
ED50: 3 mg/kg
